Measurements: PubChem BioAssay AID540270 (Broad Institute, 2011)
Activity calls are given as the source filed them. The rule behind the calls is not given here.

Biological target: Heat shock protein HSP 90-alpha (Homo sapiens) (UniProt P07900)
Assay: growth inhibition of yeast carrying human Hsp90, dose response, counter-screen, plate reader, cherry-picked samples (AID 540270)
Conditions: yeast expressing human Hsp90, growth

Compound | activity, negative = inhibition (at 26 µM (top of the series)) | other results
Cc1ccc(N=c2ssnc2Cl)cc1 | inactive | 
Cc1ccc(-c2cc(-c3ccc(F)cc3)c(C#N)c(N)n2)o1 | inactive | 
COc1ccc(C(=O)Nc2cc(C(=O)c3ccccc3)c(C)oc2=O)cc1 | inactive | 
Cc1ccc(N2C(=O)C3C4C=CC(CNC(=S)Nc5cccc(Cl)c5)(O4)C3C2=O)cc1 (centres undefined) | inactive | 
CC1(C)N=C(SCC(=O)Nc2ccc(Cl)cc2Cl)C(c2ccccc2)=N1 | inactive | 
CCOc1cc(S(=O)(=O)NC2CCCCCC2)ccc1F | inactive | 
Cc1ccc(/C=C2/NC(=O)N(Cc3ccc(Br)cc3)C2=O)o1 | inactive | 
COc1cc(N=c2ssnc2Cl)c(OC)cc1Cl | inactive | 
Cc1ccc(O)c(NC(=S)NC(=O)c2ccc(-c3ccc(Cl)cc3)o2)c1 | inactive | 
O=C(COc1ccc(Cl)cc1)NC1=NN(c2ccccc2)C(=O)C1 | inactive | 
O=C(/C(=C/c1ccc(Cl)cc1)c1nc2ccccc2[nH]1)c1ccccc1 | inactive | 
O=C(/C(=C\c1ccccc1)c1nc2ccccc2[nH]1)c1ccc(Cl)cc1 |  | activity, negative = inhibition (at 12 µM (top of the series)): inactive
CCN(CC)c1ccc(/C=C2/SC(=O)N(C(C)C)C2=O)o1 |  | activity, negative = inhibition (at 12 µM (top of the series)): inactive
CCOC(=O)c1cc([N+](=O)[O-])cc([N+](=O)[O-])c1Sc1ncnc2nc[nH]c12 | inactive | 
C[CH2][Hg][S]c1ccccc1C(=O)O |  | AC50: 2.31 µM
CCOc1ccc(S(=O)(=O)NCc2ccccn2)c(C)c1C | inactive | 
O=C1CC(c2ccccc2)CC(O)=C1C=Nc1cccc(Cl)c1 (centres undefined) |  | AC50: 4.28 µM

Compound | activity, negative = inhibition (at 26 µM (top of the series)) | other results
O=C(CSCC(=O)N1CCCCC1)Nc1nc(-c2ccc(Cl)s2)cs1 | inactive | 
Cc1cc(Br)c2c(c1)/C(=C/C(=O)c1cccs1)C(=O)N2 | inactive | 
O=C(/C(=C/c1cccc(Cl)c1)c1nc2ccccc2[nH]1)c1ccccc1 | inactive | 
O=C(O)/C=C/c1cn(-c2ccccc2)nc1-c1cc2ccccc2o1 | inactive | 
Cc1ccc(OCc2n[nH]c(=S)n2C2CCCCC2)cc1 | inactive | 
COc1ccc(NC(=S)Nc2ccc3snnc3c2)cc1 | inactive | 
Cc1ccc(N2C(=O)C3C4C=CC(CNC(=S)Nc5ccc(F)cc5)(O4)C3C2=O)cc1 (centres undefined) | inactive | 
O=C(O)c1cccc(N/N=C/c2cc(Br)cc(Br)c2O)c1 | inactive | 
NC(=O)/C=C\C(=O)Nc1cccc(C(F)(F)F)c1 | inactive | 
O=C1S/C(=C/c2ccc(N3CCOCC3)o2)C(=O)N1Cc1c(F)cccc1Cl | inactive | 
CCCC1CCC(c2ccc(/C(N)=N/O)cc2)CC1 (centres undefined) | inactive | 
O=C1C=CC(=O)N1Cc1ccccc1 | inactive | 
CC(C)OC(=O)c1ccc(NCc2cc(O)ccc2O)cc1Cl | inactive | 
CN(C)c1ccc(-c2cc(O)c3ncccc3c2)cc1 | inactive | 
Cc1csc(CNc2ncnc3ccc(-c4cccc(Cl)c4)cc23)c1 | inactive | 
O=C1/C(=C\c2ccc(Cl)cc2)CCC1CNc1ccc(Cl)cc1 (centres undefined) | inactive | 
CC(=NNC(=S)N1CC2CCC(CC2)C1)c1nccs1 | inactive | 
